This note sets out measurements from US10118901B2 (priority 2013, dated 2018).

Structures are written as SMILES.

Series [1] has as its system KM12. Nature of the series: NCI-60 screen at 10 μM: KM12. The class given is cell-based, human. To be noted: Colon Cancer KM12; 10 μM single dose; 48 hrs. The protocol:
(§1) NL-101 and CY-102 was sent to U.S. National Cancer Institute (NCI) for NCI 60-cell line screening using a single compound dose (10 μM).
(§2) The human tumor cell lines of the cancer screening panel were grown in RPMI 1640 medium containing 5% fetal bovine serum (5% FBS) and 2 mM L-glutamine. For a typical screening experiment, cells were inoculated into 96-well microtiter plates in 100 μL, at plating densities ranging from 5,000 to 40,000 cells/well depending on the doubling time of individual cell lines. After cell inoculation, the microtiter plates were incubated at 37° C., 5% CO2, 95% air, and 100% relative humidity for 24 h prior to addition of experimental compounds. […]
(§3) Following drug addition, the plates were incubated for an additional 48 hrs at 37° C., 5% CO2, 95% air, and 100% relative humidity. […] Bound stain was subsequently solubilized with 10 mM trizma base, and the absorbance was read on an automated plate reader at a wavelength of 515 nm. […]
(§4) Using the seven absorbance measurements [time zero, (Tz), control growth, (C), and test growth in the presence of drug at the 10 μM concentration levels (Ti)], percentage growth was calculated at each of the drug concentrations levels. Percentage growth inhibition was calculated as: [(Ti−Tz)/(C−Tz)]×100 for which Ti>/=Tz or [(Ti−Tz)/Tz]×100 for which Ti<Tz.

Series [2] relates to OVCAR-8. Nature of the series: NCI-60 screen at 10 μM: OVCAR-8. It counts as cell-based, human. The conditions noted are these: Ovarian Cancer OVCAR-8; 10 μM single dose; 48 hrs. As for the experimental part:
as §1, §2, §3, §4

For series [3], the target named is hERG (Human Ether-á-go-go-Related-Gene) (Homo sapiens, UniProt Q12809).
The test system of series [4] is NCI-H460. Nature of the series: NCI-60 screen at 10 μM: NCI-H460. The class given is cell-based, human. To be noted: NSCLC NCI-H460; 10 μM single dose; 48 hrs. As for the experimental part:
as §1, §2, §3, §4

For series [5], the target named is HDAC enzymes (Hela Nuclear Extract). It counts as biochemical.
Series [6] deals with SNB-19. Briefly: NCI-60 screen at 10 μM: SNB-19. It counts as cell-based, human. To be noted: CNS Cancer (Glioma) SNB-19; 10 μM single dose; 48 hrs. The protocol: as §1, §2, §3, §4
Series [7] has as its system NCI-H322M. Nature of the series: NCI-60 screen at 10 μM: NCI-H322M. It counts as cell-based, human. To be noted: NSCLC NCI-H322M; 10 μM single dose; 48 hrs. As for the experimental part: as §1, §2, §3, §4
The subject of series [8] is HS 578T. Briefly: NCI-60 screen at 10 μM: HS 578T. The class given is cell-based, human. To be noted: Breast Cancer HS 578T; 10 μM single dose; 48 hrs. The protocol:
as §1, §2, §3, §4

Series [9] deals with LOX IMVI. Briefly: NCI-60 screen at 10 μM: LOX IMVI. The class given is cell-based, human. The conditions noted are these: Melanoma LOX IMVI; 10 μM single dose; 48 hrs. The protocol:
as §1, §2, §3, §4

Series [10] can be described thus: Water solubility. The class given is physicochemical. To be noted: thermodynamic from solid; distilled water at room temperature, visual inspection. The protocol:
To measure water solubility, to approximately 10 mg of a sample in a tube-stoppered 10 mL graduated cylinder, increasing volumes of distilled water at room temperature were added according to the steps shown in the table below:
After each addition of water to give the indicated total volume, the mixture was vortexed or sonicated for 1 min and was visually inspected for any undissolved parts of the sample. If, after a total of 10 mL of water had been added (step 5), the sample or parts of it remained undissolved, the contents of the measuring cylinder was transferred to a 100 mL measuring cylinder which was then filled up with water up to 100 mL (20 ml, 25 ml, 50 ml, 100 ml) and shaken. The approximate solubility was given in the table under that volume of added water in which complete dissolution of the sample occurred. If the substance was still apparently insoluble, further dilution was undertaken to ascertain whether the column elution or the flask solubility method should be used.

Series [11] has as its system MOLT-4. Nature of the series: NCI-60 screen at 10 μM: MOLT-4. To be noted: Leukemia MOLT-4; 10 μM single dose; 48 hrs. It counts as cell-based, human. As for the experimental part:
as §1, §2, §3, §4

Series [12] deals with HCC-2998. Briefly: NCI-60 screen at 10 μM: HCC-2998. The class given is cell-based, human. To be noted: Colon Cancer HCC-2998; 10 μM single dose; 48 hrs. As for the experimental part:
as §1, §2, §3, §4

Series [13] deals with NCI-60 cell lines. Briefly: NCI-60 cell line panel screening of NL-101 (NSC#751447). The class given is cell-based, human.
Series [14] relates to NCI-H522. Briefly: NCI-60 screen at 10 μM: NCI-H522. It counts as cell-based, human. The conditions noted are these: NSCLC NCI-H522; 10 μM single dose; 48 hrs. As for the experimental part: as §1, §2, §3, §4
Series [15] has as its system EKVX. Nature of the series: NCI-60 screen at 10 μM: EKVX. The class given is cell-based, human. To be noted: NSCLC EKVX; 10 μM single dose; 48 hrs. As for the experimental part:
as §1, §2, §3, §4

The test system of series [16] is SF-539. Nature of the series: NCI-60 screen at 10 μM: SF-539. It counts as cell-based, human. The conditions noted are these: CNS Cancer (Glioma) SF-539; 10 μM single dose; 48 hrs. The protocol:
as §1, §2, §3, §4

In series [17] the test system is CCRF-CEM. Briefly: NCI-60 screen at 10 μM: CCRF-CEM. To be noted: Leukemia CCRF-CEM; 10 μM single dose; 48 hrs. It counts as cell-based, human. The protocol: as §1, §2, §3, §4

Chain of hERG (Human Ether-á-go-go-Related-Gene) (Q12809 whole entry): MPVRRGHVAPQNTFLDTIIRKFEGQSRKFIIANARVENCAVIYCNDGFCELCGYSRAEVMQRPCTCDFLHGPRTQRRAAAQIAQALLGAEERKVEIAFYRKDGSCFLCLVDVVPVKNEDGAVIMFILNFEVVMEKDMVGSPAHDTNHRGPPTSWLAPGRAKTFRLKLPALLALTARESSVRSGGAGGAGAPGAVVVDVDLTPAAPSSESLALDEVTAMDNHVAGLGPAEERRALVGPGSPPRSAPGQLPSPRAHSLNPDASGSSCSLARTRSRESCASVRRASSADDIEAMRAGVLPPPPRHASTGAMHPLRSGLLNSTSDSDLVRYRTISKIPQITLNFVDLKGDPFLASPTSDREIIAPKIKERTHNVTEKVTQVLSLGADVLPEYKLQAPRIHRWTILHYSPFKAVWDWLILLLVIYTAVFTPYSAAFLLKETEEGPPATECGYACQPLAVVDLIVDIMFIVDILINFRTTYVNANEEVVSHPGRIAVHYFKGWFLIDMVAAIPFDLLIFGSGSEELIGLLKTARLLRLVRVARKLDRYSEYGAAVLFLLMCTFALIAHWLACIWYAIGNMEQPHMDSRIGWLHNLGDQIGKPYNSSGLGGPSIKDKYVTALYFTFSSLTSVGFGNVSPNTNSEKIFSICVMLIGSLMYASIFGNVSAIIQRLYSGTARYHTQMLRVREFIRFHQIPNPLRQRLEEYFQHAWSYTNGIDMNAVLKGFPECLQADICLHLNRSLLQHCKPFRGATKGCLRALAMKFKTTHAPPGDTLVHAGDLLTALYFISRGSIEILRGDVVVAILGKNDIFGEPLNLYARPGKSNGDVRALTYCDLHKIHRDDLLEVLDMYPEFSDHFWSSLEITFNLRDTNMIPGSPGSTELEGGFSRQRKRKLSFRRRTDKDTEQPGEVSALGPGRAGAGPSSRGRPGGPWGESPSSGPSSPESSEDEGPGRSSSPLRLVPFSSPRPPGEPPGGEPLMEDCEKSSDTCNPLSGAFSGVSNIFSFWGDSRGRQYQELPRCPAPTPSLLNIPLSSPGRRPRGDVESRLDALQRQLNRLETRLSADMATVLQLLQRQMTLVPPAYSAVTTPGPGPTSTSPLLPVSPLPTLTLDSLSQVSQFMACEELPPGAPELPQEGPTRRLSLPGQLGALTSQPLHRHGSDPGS

`Cn1c(CCNCc2ccc(/C=C/C(=O)NO)cc2)nc2cc(N(CCCl)CCCl)ccc21` [CY-102]: the Growth % is −78.14% in series [1]; −26.88% in series [2]; 2.61% in series [4]; −10.81% in [6]; −15.30% in series [7]; 8.17% in series [8]. In addition, the results for the Growth % in [9], in series [11] and in series [12] were −26.41%, 2.17% and −80.55%, respectively. In addition, the “fold less cardiotoxicity compared to NL-101 (hERG assay)” value in series [3] is 5-10 fold. In series [5] (Hela nuclear extract, N/A* = No HDAC activity up to highest testing concentration of 10 μM), inhibition was half-maximal at 3.5 nM (IC50). Moreover, the “fold more potent than SAHA in the HDAC (nuclear extract) assay” value in series [5] (versus SAHA) is “about 10 fold”. In series [10], this molecule came in with a solubility at 1 min of more than 20 mg/mL.
`Cn1c(CCCCCCC(=O)NO)nc2cc(N(CCCl)CCCl)ccc21` [NL-101]: the Growth % in [1] is given as 65.79%; in [2], 32.65%; in series [4] it was 25.56%; in [14], −5.90%; in series [6] it was 55.62%; in series [7], 75.30%. Besides, the Growth % in [8] is reported as 24.01%; in series [9], −23.43%; in series [15], 92.48%; in series [16], 23.72%; in [11], 18.01%; in series [12], 86.98%. In addition, in series [17], the Growth % is recorded as 17.16%. Further, the 50% inhibitory concentration (IC50) in series [13] (Homo sapiens, on average, read-out: average cellular IC50 in the 60 cancer cell lines) was approximately 2000 nM. Moreover, the “fold more potent than Bendamustine in the NCI-60 cell lines” value in series [13] (versus Bendamustine) is given as 25-100 fold.

As usually defined, the IC50 is the midpoint of a concentration-inhibition curve. Broadly, the solubility is how much of the substance goes into solution per volume. A higher solubility goes with a readily soluble substance.
